Consider 58 compounds from ChEMBL document CHEMBL1124541, “Antibacterials. Synthesis and structure-activity studies of 3-aryl-2-oxooxazolidines. 1. The "B" group” (1989).

≈ marks a conversion by molar mass, not a printed value.

Experiment [1] relates to Enterococcus faecalis. Briefly: In vitro minimum inhibitory concentration against Enterococcus faecalis (STCO-19). In kind it is functional.
The subject of experiment [2] is Staphylococcus aureus. Briefly: In vitro minimum inhibitory concentration against Staphylococcus aureus (SFCO-1a). In kind it is functional.
Experiment [3] has as its system Staphylococcus aureus.
The subject of experiment [4] is Enterococcus faecalis.

The MIC is the lowest concentration found to suppress growth. As to `CCC1CN(c2ccc(S(C)(=O)=O)cc2)C(=O)O1` (stereo not given), the minimal inhibitory concentration (MIC) in the experiment with Enterococcus faecalis [1] and in the experiment with Staphylococcus aureus [2] was 128 mg/L (≈ 475 µM) in each case.
As to `CSc1ccc(N2CC(CCl)OC2=O)cc1` (stereo not given), the MIC with Enterococcus faecalis [1] and in the experiment with Staphylococcus aureus [2] was over 128 mg/L in each case.
For `CC(=O)c1ccc(N2C[C@H](CNC(N)=O)OC2=O)cc1`, the figures for the MIC with Enterococcus faecalis [1] and against Staphylococcus aureus [2] were 1 mg/L (≈ 3.61 µM) and 4 mg/L (≈ 14.4 µM), respectively.
For the compound `CC(=O)NC[C@H]1CN(c2ccc(C(C)=O)cc2)C(=O)O1` [DUP-721], the figures for the minimal inhibitory concentration (MIC) against Enterococcus faecalis [1] and against Staphylococcus aureus [2] were 1 mg/L (≈ 3.62 µM) and 0.5 mg/L (≈ 1.81 µM), respectively.
Regarding `CSc1ccc(N2CC(CNC(C)=O)OC2=O)cc1` (stereo not given), the MIC in the experiment with Enterococcus faecalis [1] and in the experiment on Staphylococcus aureus [2] was 4 mg/L (≈ 14.3 µM) in each case.
In the case of `COC(=O)NC[C@H]1CN(c2ccc(C(C)=O)cc2)C(=O)O1`, the MIC against Enterococcus faecalis [1] and in the experiment with Staphylococcus aureus [2] was 4 mg/L (≈ 13.7 µM) each time.
With `CC(C)c1ccc(N2CC(CCl)OC2=O)cc1` (stereo not given), the MIC against Enterococcus faecalis [1] and with Staphylococcus aureus [2] was 64 mg/L (≈ 252 µM) each time.
For `CC(=O)c1ccc(N2C[C@H](CNC(=O)CC#N)OC2=O)cc1`, the minimum inhibitory concentration (MIC) is 8 mg/L (≈ 26.6 µM) against Enterococcus faecalis [1] and 16 mg/L (≈ 53.1 µM) against Staphylococcus aureus [2].
Turning to `CC(=O)c1ccc(N2CC(CN3CCOCC3)OC2=O)cc1` (stereo not given), the MIC with Enterococcus faecalis [1] and with Staphylococcus aureus [2] was over 128 mg/L in each case.
Consider `CSc1ccc(N2CC(C)OC2=O)cc1` (stereo not given), for which the MIC against Enterococcus faecalis [1] and with Staphylococcus aureus [2] was over 128 mg/L in each case.
In the case of `CC1=C(C(=O)O)N2C(=O)[C@@H](NC(=O)[C@H](N)c3ccccc3)[C@H]2SC1` [CEPHALEXIN ANHYDROUS], the minimal inhibitory concentration (MIC) is 64 mg/L (≈ 184 µM) in the experiment with Enterococcus faecalis [1] and 0.5 mg/L (≈ 1.44 µM) against Staphylococcus aureus [2].
In the case of `CC(=O)c1ccc(N2CC(CN=[N+]=[N-])OC2=O)cc1` (stereo not given), the minimum inhibitory concentration (MIC) in the experiment with Enterococcus faecalis [1] and against Staphylococcus aureus [2] was over 128 mg/L each time.
With `CS(=O)(=O)c1ccc(N2CC(CCl)OC2=O)cc1` (stereo not given), the results for the MIC with Enterococcus faecalis [1] and with Staphylococcus aureus [2] were 4 mg/L (≈ 13.8 µM) and 8 mg/L (≈ 27.6 µM), respectively.
Consider `CCCC(=O)OCC1CN(c2ccc(C(C)=O)cc2)C(=O)O1` (stereo not given), for which the MIC was over 128 mg/L in the experiment on Enterococcus faecalis [1] and 64 mg/L (≈ 210 µM) against Staphylococcus aureus [2].
`CC(C)c1ccc(N2CC(CO)OC2=O)cc1` (stereo not given): the MIC in the experiment with Enterococcus faecalis [1] turned out to be 32 mg/L (≈ 136 µM); against Staphylococcus aureus [2] it was 64 mg/L (≈ 272 µM).
`CC(=O)c1ccc(N2CC(CN3C(=O)c4ccccc4C3=O)OC2=O)cc1` (stereo not given): the MIC against Enterococcus faecalis [1] and in the experiment on Staphylococcus aureus [2] was over 128 mg/L each time.
GENTAMICIN: the MIC with Staphylococcus aureus [3] came out at 0.25 mg/L; against Enterococcus faecalis [4], 16 mg/L.
Regarding `CC(=O)c1ccc(N2CC(COP(=O)(O)O)OC2=O)cc1` (stereo not given), the minimum inhibitory concentration (MIC) against Enterococcus faecalis [1] and in the experiment with Staphylococcus aureus [2] was over 128 mg/L in each case.
Take `CC(=O)NCC1CN(c2ccc(S(N)(=O)=O)cc2)C(=O)O1` (stereo not given): the MIC with Enterococcus faecalis [1] came out at 16 mg/L (≈ 51.1 µM); in the experiment on Staphylococcus aureus [2], 32 mg/L (≈ 102 µM).
Turning to `CC(=O)c1ccc(N2CC(COS(=O)(=O)c3ccc(C)cc3)OC2=O)cc1` (stereo not given), the MIC in the experiment on Enterococcus faecalis [1] and with Staphylococcus aureus [2] was 8 mg/L (≈ 20.5 µM) throughout.
Turning to `CCCC(=O)NC[C@H]1CN(c2ccc(C(C)=O)cc2)C(=O)O1`, the MIC with Enterococcus faecalis [1] and in the experiment with Staphylococcus aureus [2] was 8 mg/L (≈ 26.3 µM) throughout.
Consider `CC(=O)c1ccc(N2CC(CN)OC2=O)cc1` (stereo not given), for which the MIC in the experiment on Enterococcus faecalis [1] and with Staphylococcus aureus [2] was over 128 mg/L throughout.
With `CC(=O)c1ccc(N2CC(CO)OC2=O)cc1` (stereo not given), the MIC against Enterococcus faecalis [1] and with Staphylococcus aureus [2] was 16 mg/L (≈ 68 µM) throughout.
`CC(=O)OCC1CN(c2ccc(C(C)C)cc2)C(=O)O1` (stereo not given): the minimum inhibitory concentration (MIC) against Enterococcus faecalis [1] and in the experiment with Staphylococcus aureus [2] was 128 mg/L (≈ 462 µM) in each case.
For `CC1CN(c2ccc(S(C)(=O)=O)cc2)C(=O)O1` (stereo not given), the minimum inhibitory concentration (MIC) in the experiment with Enterococcus faecalis [1] came out at 128 mg/L (≈ 501 µM); against Staphylococcus aureus [2] it was 64 mg/L (≈ 251 µM).
Consider `C[S+]([O-])c1ccc(N2CC(CO)OC2=O)cc1` (stereo not given), for which the minimal inhibitory concentration (MIC) against Enterococcus faecalis [1] and against Staphylococcus aureus [2] was 64 mg/L (≈ 251 µM) throughout.
Take `CC(=O)c1ccc(N2C[C@H](CNC(=O)N(C)C)OC2=O)cc1`: the minimal inhibitory concentration (MIC) in the experiment with Enterococcus faecalis [1] and in the experiment on Staphylococcus aureus [2] was 128 mg/L (≈ 419 µM) throughout.
Take `C[S+]([O-])c1ccc(N2CC(CCl)OC2=O)cc1` (stereo not given): the MIC against Enterococcus faecalis [1] and with Staphylococcus aureus [2] was 32 mg/L (≈ 117 µM) each time.
Consider `CC(=O)c1ccc(N2CC(C)OC2=O)cc1` (stereo not given), for which the minimal inhibitory concentration (MIC) in the experiment on Enterococcus faecalis [1] and with Staphylococcus aureus [2] was over 128 mg/L in each case.
`CC(=O)NCC1CN(c2ccc([S+](C)[O-])cc2)C(=O)O1` (stereo not given): the MIC against Enterococcus faecalis [1] and against Staphylococcus aureus [2] was 4 mg/L (≈ 13.5 µM) throughout.
Take `CS(=O)(=O)c1ccc(N2CC(CN=[N+]=[N-])OC2=O)cc1` (stereo not given): the MIC worked out at 8 mg/L (≈ 27 µM) with Enterococcus faecalis [1] and 16 mg/L (≈ 54 µM) against Staphylococcus aureus [2].
`CC(=O)CC(=O)NC[C@H]1CN(c2ccc(C(C)=O)cc2)C(=O)O1`: the MIC was 16 mg/L (≈ 50.3 µM) with Enterococcus faecalis [1] and 8 mg/L (≈ 25.1 µM) with Staphylococcus aureus [2].
In the same order, the values of `CC(=O)c1ccc(N2C[C@H](CNC(=O)CSC#N)OC2=O)cc1` are 32 mg/L (≈ 96 µM) and 32 mg/L (≈ 96 µM).
`NS(=O)(=O)c1ccc(N2CC(CO)OC2=O)cc1` (stereo not given): the minimum inhibitory concentration (MIC) with Enterococcus faecalis [1] and against Staphylococcus aureus [2] was 128 mg/L (≈ 470 µM) in each case.
Regarding `CC(=O)c1ccc(N2CC(CCl)OC2=O)cc1` (stereo not given), the minimum inhibitory concentration (MIC) against Enterococcus faecalis [1] is 64 mg/L (≈ 252 µM); against Staphylococcus aureus [2] it was 32 mg/L (≈ 126 µM).
In the same order, the values of `CC(=O)c1ccc(N2CC(CN)OC2=O)cc1.Cl` (stereo not given) are over 128 mg/L and over 128 mg/L.
Take `CC(=O)c1ccc(N2C[C@H](CNC(=O)C3CC3)OC2=O)cc1`: the MIC stood at 4 mg/L (≈ 13.2 µM) against Enterococcus faecalis [1] and 8 mg/L (≈ 26.5 µM) in the experiment on Staphylococcus aureus [2].
As for `CC1CN(c2ccc(C(C)C)cc2)C(=O)O1` (stereo not given), the MIC against Enterococcus faecalis [1] and against Staphylococcus aureus [2] was 128 mg/L (≈ 584 µM) in each case.
In the case of `CC(=O)NCC(=O)NC[C@H]1CN(c2ccc(C(C)=O)cc2)C(=O)O1`, the minimal inhibitory concentration (MIC) against Enterococcus faecalis [1] was over 128 mg/L; with Staphylococcus aureus [2], 128 mg/L (≈ 384 µM).
As to `CS(=O)(=O)c1ccc(N2CC(CN)OC2=O)cc1` (stereo not given), the MIC in the experiment on Enterococcus faecalis [1] and in the experiment on Staphylococcus aureus [2] was over 128 mg/L each time.
For `CC(=O)c1ccc(N2C[C@H](CNC(=O)C(C)C)OC2=O)cc1`, the MIC was found to be 16 mg/L (≈ 52.6 µM) against Enterococcus faecalis [1] and 8 mg/L (≈ 26.3 µM) with Staphylococcus aureus [2].
Consider `NS(=O)(=O)c1ccc(N2CC(CCl)OC2=O)cc1` (stereo not given), for which the minimal inhibitory concentration (MIC) against Enterococcus faecalis [1] is over 128 mg/L; with Staphylococcus aureus [2], 16 mg/L (≈ 55 µM).
For `[N-]=[N+]=NCC1CN(c2ccc(S(N)(=O)=O)cc2)C(=O)O1` (stereo not given) the same measures were 64 mg/L (≈ 215 µM) and 32 mg/L (≈ 108 µM).
`CS(=O)(=O)c1ccc(N2CC(CO)OC2=O)cc1` (stereo not given): the MIC against Enterococcus faecalis [1] and in the experiment on Staphylococcus aureus [2] was 16 mg/L (≈ 59 µM) in each case.
`COC(=O)c1nnn(CC2CN(c3ccc(C(C)=O)cc3)C(=O)O2)c1C(=O)OC` (stereo not given): the MIC against Enterococcus faecalis [1] and in the experiment with Staphylococcus aureus [2] was over 128 mg/L throughout.
On to `CCC1CN(c2ccc(C(C)C)cc2)C(=O)O1` (stereo not given), for which the minimal inhibitory concentration (MIC) with Enterococcus faecalis [1] and in the experiment with Staphylococcus aureus [2] was over 128 mg/L each time.
Regarding `CC(=O)NCC1CN(c2ccc(S(C)(=O)=O)cc2)C(=O)O1` (stereo not given), the minimal inhibitory concentration (MIC) in the experiment with Enterococcus faecalis [1] and against Staphylococcus aureus [2] was 4 mg/L (≈ 12.8 µM) in each case.
For `CSc1ccc(N2CC(CO)OC2=O)cc1` (stereo not given), the minimum inhibitory concentration (MIC) against Enterococcus faecalis [1] and in the experiment with Staphylococcus aureus [2] was 128 mg/L (≈ 535 µM) throughout.
Turning to `CC(=O)c1ccc(N2C[C@H](CNC(=O)C(Cl)Cl)OC2=O)cc1`, the minimum inhibitory concentration (MIC) against Enterococcus faecalis [1] and against Staphylococcus aureus [2] was 2 mg/L (≈ 5.79 µM) in each case.
For the compound `CCC(=O)NC[C@H]1CN(c2ccc(C(C)=O)cc2)C(=O)O1`, the minimal inhibitory concentration (MIC) with Enterococcus faecalis [1] and with Staphylococcus aureus [2] was 4 mg/L (≈ 13.8 µM) in each case.
Consider `CC(=O)c1ccc(N2C[C@H](CNC=O)OC2=O)cc1`, for which the MIC came out at 8 mg/L (≈ 30.5 µM) with Enterococcus faecalis [1] and 4 mg/L (≈ 15.3 µM) in the experiment on Staphylococcus aureus [2].
`CC(=O)c1ccc(N2CC(CF)OC2=O)cc1` (stereo not given): the results for the minimal inhibitory concentration (MIC) against Enterococcus faecalis [1] and against Staphylococcus aureus [2] were 128 mg/L (≈ 540 µM) and 64 mg/L (≈ 270 µM), respectively.
For the compound `CC(=O)NCC1CN(c2ccc(C(C)C)cc2)C(=O)O1` (stereo not given), the MIC in the experiment on Enterococcus faecalis [1] and against Staphylococcus aureus [2] was 4 mg/L (≈ 14.5 µM) each time.
With `CC(C)c1ccc(N2CC(CN=[N+]=[N-])OC2=O)cc1` (stereo not given), the minimum inhibitory concentration (MIC) in the experiment on Enterococcus faecalis [1] and against Staphylococcus aureus [2] was over 128 mg/L each time.
`CC(=O)c1ccc(N2C[C@H](CNC(=O)OC(C)(C)C)OC2=O)cc1`: the minimal inhibitory concentration (MIC) in the experiment on Enterococcus faecalis [1] and against Staphylococcus aureus [2] was 128 mg/L (≈ 383 µM) throughout.
Turning to `C=CC1CN(c2ccc(C(C)=O)cc2)C(=O)O1` (stereo not given), the MIC against Enterococcus faecalis [1] and with Staphylococcus aureus [2] was over 128 mg/L in each case.
`CN[C@H](CC(C)C)C(=O)N[C@H]1C(=O)N[C@@H](CC(N)=O)C(=O)N[C@H]2C(=O)N[C@H]3C(=O)N[C@H](C(=O)N[C@H](C(=O)O)c4cc(O)cc(O)c4-c4cc3ccc4O)[C@H](O)c3ccc(c(Cl)c3)Oc3cc2cc(c3O[C@@H]2O[C@H](CO)[C@@H](O)[C@H](O)[C@H]2O[C@H]2C[C@](C)(N)[C@H](O)[C@H](C)O2)Oc2ccc(cc2Cl)[C@H]1O` [VANCOMYCIN]: in the experiment with Enterococcus faecalis [1], it took 2 mg/L (≈ 1.38 µM) to inhibit growth (MIC).
On to `COCC(=O)NC[C@H]1CN(c2ccc(C(C)=O)cc2)C(=O)O1`, for which the MIC with Enterococcus faecalis [1] and in the experiment on Staphylococcus aureus [2] was 32 mg/L (≈ 104 µM) throughout.
